Data reported in US8980911B2, “Heterocyclic compounds as protein kinase inhibitors” (Daiichi Sankyo Company, Limited, priority 2011, dated 2015).

Experiments:
Format in all cases: biochemical
JAK1 = target: T1, JAK1 (Homo sapiens, UniProt P23458); test: In vitro enzyme assay (cell-free HTRF kinase assay), JAK1; settings: catalytic domain aa 850-1154, GST-tag; ATP 60 μM, SRCtide 400 nM, reaction 120 min
T1 construct: JAK1 (aa 850-1154) and TYK2 (aa 871-1187) are expressed with an N-terminally fused GST-tag; GST (N); purchased Carna Bioscience, Inc; host or cells: baculovirus expression system
Description: (§1) Kinase buffer [50 mM HEPES (pH 7.5), 1 mM EGTA, 10 mM MgCl2, 2 mM DTT and 0.01% Tween-20) was prepared and dilutions of a compound of formula (I) and other reagents were subsequently made in it. Two times concentrated compound of formula (I) solution: A compound of formula (I) was diluted to 100-fold final concentration in DMSO, followed by 50-fold dilution with Kinase buffer (1% DMSO final concentration). Four times concentrated Substrate/ATP mix solution: Biotin-SRCtide and ATP were diluted to 4-fold final concentration in Kinase buffer. Biotin-SRCtide solution (purchased from Anaspec) was mixed with ATP solution (1:1). Four times concentrated Enzyme solution: JAK1 or JAK2 or JAK3 or TYK2 enzyme [Human baculo virus expressed JAK1, JAK2, JAK3 and TYK2 were purchased from Carna Bioscience, Inc. All enzymes only contain the catalytic domain. JAK1 (aa 850-1154) and TYK2 (aa 871-1187) are expressed with an N-terminally fused GST-tag, and JAK2 and JAK3 with an N-terminally fused His-tag] was diluted to 4-fold final concentration in Kinase buffer and always kept on ice. Detection buffer: LANCE detection buffer (10 times concentrated) was diluted 10-fold in H2O. Four times concentrated stop solution: EDTA was diluted to a concentration of 40 mM in detection buffer. Four times concentrated ULight/Eu-antibody (from Perkin Elmer) mix solution: ULight-Streptavidin was diluted to a concentration of 100 nM (25 ng/mL final concentrations) and Eu-anti-phospho-Tyrosine (PT66) (from Perkin Elmer) was diluted to a concentration of 8 nM (2 ng/mL final concentration) in detection buffer.
(§2) Cell-free in vitro kinase assay was performed in 384 well plates. Two times concentrated compound solution (5 μL) was pipetted into a HTS 384SV Small Volume Plate. Four times concentrated Substrate/ATP mix (2.5 μL) solution was added along with 4 times concentrated Enzyme solution (2.5 μL). Plate was covered with TopSeal-A and incubated at room temperature for indicated time (Table 3). Four times concentrated Stop solution (5 μL, 10 mM final concentration) was added and incubated for 5 minutes at room temperature. Four times concentrated ULight/Eu-antibody mix solution (5 μL) was added and again plate was covered with TopSeal and incubated overnight at 4° C. TopSeal was removed and HTRF signal was measured at 615 nm and […] (excitation at 320 or 340 nm) on Tecan M1000 Multi mode plate reader. Ratio (665 nm/615 nm)×10^4 was calculated and IC50 values were deduced from Graph-pad prism 4.2.

JAK3 = target: T2, JAK3 (Homo sapiens, UniProt P52333); test: In vitro enzyme assay (cell-free HTRF kinase assay), JAK3; settings: catalytic domain, His-tag; ATP 3 μM, SRCtide 100 nM, reaction 30 min
T2 construct: All enzymes only contain the catalytic domain; His (N); purchased Carna Bioscience, Inc; host or cells: baculovirus expression system
Description: as §1, §2

JAK2 = target: T3, JAK2 (Homo sapiens, UniProt O60674); test: In vitro enzyme assay (cell-free HTRF kinase assay), JAK2; settings: catalytic domain, His-tag; ATP 10 μM, SRCtide 25 nM, reaction 30 min
T3 construct: All enzymes only contain the catalytic domain; His (N); purchased Carna Bioscience, Inc; host or cells: baculovirus expression system
Description: as §1, §2

T2 sequence (P52333 822-1111 limits assumed): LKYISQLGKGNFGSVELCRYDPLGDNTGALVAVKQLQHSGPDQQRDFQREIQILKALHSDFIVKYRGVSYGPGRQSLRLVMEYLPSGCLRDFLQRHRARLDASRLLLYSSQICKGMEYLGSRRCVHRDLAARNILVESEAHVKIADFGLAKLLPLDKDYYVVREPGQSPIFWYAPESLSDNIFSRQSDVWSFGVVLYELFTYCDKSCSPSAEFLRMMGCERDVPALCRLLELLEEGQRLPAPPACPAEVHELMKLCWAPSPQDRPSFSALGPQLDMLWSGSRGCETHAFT
T1 sequence (P23458 850-1154): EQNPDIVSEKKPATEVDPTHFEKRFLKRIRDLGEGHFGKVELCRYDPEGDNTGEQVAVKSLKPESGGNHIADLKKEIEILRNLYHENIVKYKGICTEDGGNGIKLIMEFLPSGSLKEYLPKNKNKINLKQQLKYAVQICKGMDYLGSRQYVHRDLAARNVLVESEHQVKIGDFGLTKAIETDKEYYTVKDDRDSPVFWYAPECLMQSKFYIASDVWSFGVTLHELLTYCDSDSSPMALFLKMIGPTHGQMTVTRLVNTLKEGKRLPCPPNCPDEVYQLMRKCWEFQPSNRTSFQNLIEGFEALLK
T3 sequence (O60674 849-1124 limits assumed): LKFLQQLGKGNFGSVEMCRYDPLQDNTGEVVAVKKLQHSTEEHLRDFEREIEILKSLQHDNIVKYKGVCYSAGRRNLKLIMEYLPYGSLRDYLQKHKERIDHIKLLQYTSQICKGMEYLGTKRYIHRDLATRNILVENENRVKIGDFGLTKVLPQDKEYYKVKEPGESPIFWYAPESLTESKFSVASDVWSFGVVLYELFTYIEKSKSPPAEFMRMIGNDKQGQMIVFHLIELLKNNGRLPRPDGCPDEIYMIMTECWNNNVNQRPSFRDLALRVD

Row | SMILES | IC50 (JAK1) [nM] | IC50 (JAK3) [nM] | IC50 (JAK2) [nM]
1 | Nc1cc(Cl)c(C(=O)c2c[nH]c3cnccc23)c(Cl)c1 [Compound No. 3, (4-Amino-2,6-dichlorophenyl)(1H-pyrrolo[2,3-c]pyridin-3-yl)methanone] | < 1000 | < 1000 | < 500
2 | N#Cc1cc(Cl)c(C(=O)c2c[nH]c3cnccc23)c(Cl)c1 [Compound No. 6, 3,5-Dichloro-4-(1H-pyrrolo[2,3-c]pyridin-3-ylcarbonyl)benzonitrile] | < 500 | < 500 | < 500
3 | CNC(=O)c1cc(Cl)c(C(=O)c2c[nH]c3c(NC(=O)C4CC4)nccc23)c(Cl)c1 [Compound No. 12, 3,5-Dichloro-4-({7-[(cyclopropylcarbonyl)amino]-1H-pyrrolo[2,3-c]pyridin-3-yl}carbonyl)-N-methylbenzamide] | < 500 | < 100 | < 500
4 | CCNC(=O)c1cc(Cl)c(C(=O)c2c[nH]c3c(NC(=O)C4CC4)nccc23)c(Cl)c1 [Compound No. 13, 3,5-Dichloro-4-({7-[(cyclopropylcarbonyl)amino]-1H-pyrrolo[2,3-c]pyridin-3-yl}carbonyl)-N-ethylbenzamide] | < 1000 | < 500 | < 500
5 | COCCNC(=O)c1cc(Cl)c(C(=O)c2c[nH]c3c(NC(=O)C4CC4)nccc23)c(Cl)c1 [Compound No. 16, 3,5-Dichloro-4-({7-[(cyclopropylcarbonyl)amino]-1H-pyrrolo[2,3-c]pyridin-3-yl}carbonyl)-N-(2-methoxyethyl)benzamide] | < 1000 | < 500 | < 500
6 | O=C(c1c(Cl)cccc1Cl)c1c[nH]c2cnc(NC(=O)C3CC3)cc12 [Compound No. 18, N-[3-(2,6-Dichlorobenzoyl)-1H-pyrrolo[2,3-c]pyridin-5-yl]cyclopropanecarboxamide] | < 1000 | < 1000 | < 100
7 | Cc1noc(C)c1-c1cc(Cl)c(C(=O)c2c[nH]c3c(NC(=O)C4CC4)nccc23)c(Cl)c1 [Compound No. 23, N-{3-[2,6-Dichloro-4-(3,5-dimethyl-1,2-oxazol-4-yl)benzoyl]-1H-pyrrolo[2,3-c]pyridin-7-yl}cyclopropanecarboxamide] | < 1000 | < 500 | < 500
8 | O=C(NCCOCCO)c1cc(Cl)c(C(=O)c2c[nH]c3c(NC(=O)C4CC4)nccc23)c(Cl)c1 [Compound No. 29, 3,5-Dichloro-4-({7-[(cyclopropylcarbonyl)amino]-1H-pyrrolo[2,3-c]pyridin-3-yl}carbonyl)-N-[2-(2-hydroxyethoxy)ethyl]benzamide] | < 1000 | < 500 | < 1000
9 | O=C(NCCCO)c1cc(Cl)c(C(=O)c2c[nH]c3c(NC(=O)C4CC4)nccc23)c(Cl)c1 [Compound No. 30, 3,5-Dichloro-4-({7-[(cyclopropylcarbonyl)amino]-1H-pyrrolo[2,3-c]pyridin-3-yl}carbonyl)-N-(3-hydroxypropyl)benzamide] | < 500 | < 500 | < 500
10 | O=C(NCCCN1CCOCC1)c1cc(Cl)c(C(=O)c2c[nH]c3c(NC(=O)C4CC4)nccc23)c(Cl)c1 [Compound No. 31, 3,5-Dichloro-4-({7-[(cyclopropylcarbonyl)amino]-1H-pyrrolo[2,3-c]pyridin-3-yl}carbonyl)-N-[3-(morpholin-4-yl)propyl]benzamide] | < 500 | < 500 | < 1000
11 | O=C(NCC(O)CO)c1cc(Cl)c(C(=O)c2c[nH]c3c(NC(=O)C4CC4)nccc23)c(Cl)c1 (stereo not drawn) [Compound No. 32, 3,5-Dichloro-4-({7-[(cyclopropylcarbonyl)amino]-1H-pyrrolo[2,3-c]pyridin-3-yl}carbonyl)-N-(2,3-dihydroxypropyl)benzamide] | < 500 | < 50 | < 500
12 | CN(C)CCNC(=O)c1cc(Cl)c(C(=O)c2c[nH]c3c(NC(=O)C4CC4)nccc23)c(Cl)c1 [Compound No. 33, 3,5-Dichloro-4-({7-[(cyclopropylcarbonyl)amino]-1H-pyrrolo[2,3-c]pyridin-3-yl}carbonyl)-N-[2-(dimethylamino)ethyl]benzamide] | < 100 | < 100 | < 100
13 | O=C(NCCN1CCCCC1)c1cc(Cl)c(C(=O)c2c[nH]c3c(NC(=O)C4CC4)nccc23)c(Cl)c1 [Compound No. 34, 3,5-Dichloro-4-({7-[(cyclopropylcarbonyl)amino]-1H-pyrrolo[2,3-c]pyridin-3-yl}carbonyl)-N[2-(piperidin-1-yl)ethyl]benzamide] | < 500 | < 500 | < 500
14 | COC(=O)CNC(=O)c1cc(Cl)c(C(=O)c2c[nH]c3c(NC(=O)C4CC4)nccc23)c(Cl)c1 [Compound No. 35, Methyl N-[3,5-dichloro-4-({7-[(cyclopropylcarbonyl)amino]-1H-pyrrolo[2,3-c]pyridin-3-yl}carbonyl)benzoyl]glycinate] | < 500 | < 500 | < 500
15 | O=C(O)CNC(=O)c1cc(Cl)c(C(=O)c2c[nH]c3c(NC(=O)C4CC4)nccc23)c(Cl)c1 [Compound No. 36, N-[3,5-Dichloro-4-({7-[(cyclopropylcarbonyl)amino]-1H-pyrrolo[2,3-c]pyridin-3-yl}carbonyl)benzoyl]glycine] | < 500 | < 50 | < 100
16 | CC(=O)Nc1nccc2c(C(=O)c3c(Cl)cc(C(=O)NCCN4CCCCC4)cc3Cl)c[nH]c12 [Compound No. 42, 4-{[7-(Acetylamino)-1H-pyrrolo[2,3-c]pyridin-3-yl]carbonyl}-3,5-dichloro-N-[2-(piperidin-1-yl)ethyl]benzamide] | < 1000 | < 1000 | < 1000

The next lines start with the values.

Row | IC50 (JAK1) [nM] | IC50 (JAK3) [nM] | IC50 (JAK2) [nM] | SMILES
17 | < 500 | < 500 | < 500 | O=C(c1c(Cl)cccc1Cl)c1c[nH]c2c(NC(=O)C3CC3)nccc12 [Compound No. 5, N-[3-(2,6-Dichlorobenzoyl)-1H-pyrrolo[2,3-c]pyridin-7-yl]cyclopropanecarboxamide]
18 | < 500 | < 100 | < 100 | O=C(c1c(F)cccc1Cl)c1c[nH]c2c(NC(=O)C3CC3)nccc12 [Compound No. 11, N-[3-(2-Chloro-6-fluorobenzoyl)-1H-pyrrolo[2,3-c]pyridin-7-yl]cyclopropanecarboxamide]
19 | < 500 | < 500 | < 50 | O=C(c1c(F)cccc1Cl)c1c[nH]c2cnc(NC(=O)C3CC3)cc12 [Compound No. 19, N-[3-(2-Chloro-6-fluorobenzoyl)-1H-pyrrolo[2,3-c]pyridin-5-yl]cyclopropanecarboxamide]
20 | < 500 | < 500 | < 1000 | O=C(c1c(Cl)cc(Br)cc1Cl)c1c[nH]c2c(NC(=O)C3CC3)nccc12 [Compound No. 22, N-[3-(4-Bromo-2,6-dichlorobenzoyl)-1H-pyrrolo[2,3-c]pyridin-7-yl]cyclopropanecarboxamide]
21 | < 500 | < 100 | < 500 | Nc1cc(Cl)c(C(=O)c2c[nH]c3c(NC(=O)C4CC4)nccc23)c(Cl)c1 [Compound No. 26, N-[3-(4-Amino-2,6-dichlorobenzoyl)-1H-pyrrolo[2,3-c]pyridin-7-yl]cyclopropanecarboxamide]
22 | < 1000 | < 100 | < 500 | CC(=O)Nc1cc(Cl)c(C(=O)c2c[nH]c3c(NC(=O)C4CC4)nccc23)c(Cl)c1 [Compound No. 27, N-{3-[4-(Acetylamino)-2,6-dichlorobenzoyl]-1H-pyrrolo[2,3-c]pyridin-7-yl}cyclopropanecarboxamide]
23 | < 500 | < 50 | < 50 | N#Cc1cc(Cl)c(C(=O)c2c[nH]c3c(NC(=O)C4CC4)nccc23)c(Cl)c1 [Compound No. 39, N-[3-(2,6-Dichloro-4-cyanobenzoyl)-1H-pyrrolo[2,3-c]pyridin-7-yl]cyclopropanecarboxamide]
